# Experiments:
# Type in all cases: physicochemical
# [1] = Log P by potentiometric (pH-metric) octanol/water titration; details: Neutral species, […] C., […] KCl
# Protocol: pKa analysis was performed using a pH-metric method. […] No precipitation or degradation was observed and two pKas were determined from the potentiometric data. Log P was determined using the potentiometric (pH-metric method). The sample was titrated in various ratios of octanol/water in two titrations covering the pH range 2.0-12.0 at concentrations of 1.9-1.1 mM. The shift of the aqueous pKas in the presence of octanol was used to determine the log P of the neutral species.
# [2] = Concentration of saturated antagonist solutions in phosphate buffer pH 5.0; details: phosphate buffer pH 5.0, stirred overnight, filtered
# Protocol: The determination of in vitro skin permeation was performed with saturated solutions of the respective antagonist species. Therefore an excess of the antagonist was weighed in phosphate buffer of pH 5.0 and stirred overnight. pH was monitored and, if necessary, adjusted. The cells were incubated at 32° C. Solutions were filtrated through a syringe filter (1 μm PTFE) prior to application into the diffusion cells. Concentrations of the solutions were determined.
# The determination of naloxone and naloxone N-oxide in the acceptor medium of the in vitro skin permeations samples (receptor phase) was done by HPLC with UV-detection.
# [3] = Stability of prototype patches over 6 days at 60° C.
# Protocol: Naloxone N-oxide was incorporated into a prototype transdermal patch along with an opioid agonist. […] Batches of patches were prepared by weighing the appropriate amounts of the opioid agonist, Naloxone N-oxide and dry patch matrix of poly(meth)acrylate and dissolving in ethylacetate. The matrix solvent system was added and stirred for 30 minutes on a magnetic stirrer to yield a homogenous mixture. After mixing, the drug/polymer mixture was hand cast onto a release liner, Loparex Prime Liner FL 2000. Casting was carried out with a casting knife of variable width to achieve a target dry area weight matrix of 55 g/m^2. The cast was then dried at room temperature for 10 minutes, transferred to a convection oven and dried at 70° C. for 15 minutes and at 100° C. for 5 minutes. Finally the dried casts were hand-laminated with an occlusive backing, Scotchpak 9738, and patches were cut out of the laminate with 0.82 cm^2 cutting dies for skin permeation and 5 cm^2 for stability experiments.
# The stability of each of the patches over 6 days at 60° C. was also tested.
smiles,measurement,setting,value
C=CC[N+]1([O-])CC[C@]23c4c5ccc(O)c4O[C@H]2C(=O)CC[C@@]3(O)[C@H]1C5 (stereo partly drawn) [Naloxone N-oxide],logP,[1],−0.42
same,Concentration saturated solution c,[2],3960 µg/mL
same,Impact on the stability of the patch,[3],does not impact on the stability of the patch

# Reference: patent US20180344726A1, “ABUSE RESISTANT TRANSDERMAL DELIVERY DEVICES AND COMPOSITIONS COMPRISING AN OPIOID AGONIST AND A NON-TRANSDERMALLY DELIVERED N-OXIDE DERIVATIVE OF AN OPIOID ANTAGONIST FOR THE TREATMENT OF PAIN” (priority 2015, published 2018)
